Experimental data taken from patent publication US9579322B2, “Methods for treating neurologic disorders” (EIP Pharma, LLC, priority 2014, dated 2017).

What was measured:
amyloid plaque load = assay: 2-week pilot study in aged Tg2576 mice; type: in vivo; conditions: 26 month old Tg2576 mice, 2 weeks, versus control animals
[1] = system: cognitive defects in aged rats; assay: Morris water maze in aged rats; type: in vivo, Fischer rats
Method: Altogether 60 female aged (20-24 months) and 15 young adult female Fischer Rats (2-3 months) were used for the experiment. Rats were treated with oral gavage twice-a-day until the sampling (23 days) with vehicle or VX-745 0.5, 1.5 or 4.5 mg/kg. Learning and memory deficits were analyzed with Morris water maze (MWM) one week after starting the treatment.
All animal experiments were carried out according to the National Institute of Health (NIH) guidelines for the care and use of laboratory animals, and approved by the National Animal Experiment Board, Finland. Altogether 60 female aged (20-24 months) and 15 young (2-3 months) adult female Fischer rats (Charles River, France) were used for the experiment. Animals were housed at a standard temperature (22±1° C.) and in a light-controlled environment (lights on from 7 am to 8 pm) with ad libitum access to food and water. Animals were grouped as follows: • Group 1: 15 Aged Rats treated with Vehicle p.o. BID • Group 2: 15 Aged Rats treated with VX-745 (0.5 mg/kg) p.o. BID • Group 3: 15 Aged Rats treated with VX-745 (1.5 mg/kg) p.o. BID • Group 4: 15 Aged Rats treated with VX-745 (4.5 mg/kg) p.o. BID • Group 5: 15 Young adult control rats treated with Vehicle p.o. BID Drug Delivery and Rat Identification
The rats were assigned to the treatment groups equally based on their body weight and visible platform pre-training performance to ensure that both good and poor learners were equally present in all treatment groups. The treatment was given by oral gavage twice-a-day until the sampling. Vehicle was 1% Pluronic F108 and dosing volume was 5 ml/kg. Administration of vehicles and test compounds was done at 7-9 am and 3-5 pm on the pre-testing phase. On the days of behavioral testing, the treatment was given minimum 1 hour prior to first test trial. Test compounds were formulated and stored according to the instructions provided by the sponsor. The rats were marked accordingly with permanent marker to the tail. Records were kept about treatment groups and daily treatment times.
Water maze task was originally designed by Morris et al. (J Neurosci Methods. 1984; 11: 194 47-60). Testing was performed in a large dark-colored tank (200 cm in diameter) filled with clear water at a temperature of 25.0±1.0° C. A submerged platform (square platform: 10×10 cm; 1.5 cm below water surface) was placed in the middle of the of the NW quadrant. The starting locations, which were labeled N, NE, E, SE, S, SW, W, NW, were located arbitrarily on the pool rim. The rats were lowered into the pool with their nose pointing toward the wall at one of the starting points. The release point adjacent to platform location (NW) was not used.
Before the compound treatment was started, the visible platform pre-training was performed to determine whether any non-cognitive performance impairments (e.g. visual impairments and/or swimming difficulties) were present, which might affect performance on the place or probe trials. After the visible platform pre-training was completed, the data was analyzed and the rats were assigned to the different treatment groups based on their pre-training performance. This procedure was performed to ensure that each treatment group consisted equally both good and poor performers in the cued version of the water maze task.
Acquisition training—weeks 1 (days 8-11) & 2 (days 15-18): After completion of cued trials, acquisition (place) trials were executed to determine the rat's ability to learn the spatial relationship between distant cues and the submerged escape platform which remained in the same location for all place trials. The starting points were randomized (NW is not used). The rats received four trials (15 min apart, 60 s maximum for each trial) each day for 4 days/week. Latency and path length (distance) were evaluated.
Probe trial (day 19): A single probe trial was conducted 24 hours after the last place trial to evaluate memory retention. […]

[2] = Plasma concentration by LC-MS/MS 1 hour post dosing; type: in vivo, Fischer rats
Method: The primary objective of this study was to investigate whether pre-treatment with compound VX-745 alleviates cognitive defects in aged rats. Plasma concentration of VX-745 was determined with LC-MS/MS at the end of the study from samples collected 1 hour post dosing. In addition, protein levels of PSD95 in ventral cortex and hippocampus, and levels of IL-1β in the hippocampus were analyzed by specific ELISA assays to evaluate the potential anti-inflammatory effects of VX-745 in the brain
One hour after the last vehicle or VX-745 morning dosing, the animals (10 per dosing group) were deeply anesthetized with pentobarbital and blood samples were collected by cardiac puncture. 500 μl of blood was collected into EDTA microtubes, centrifuged, and plasma collected. The brains were perfused with heparinized saline, and the brains were collected. Right hemisphere was post-fixed by immersion in 4% PFA in 0.1 M PB for 24 h. After a brief wash with phosphate buffer, the hemisphere was cryoprotected in 30% sucrose in PB for 2-3 days, after which it was frozen on liquid nitrogen and stored at −80° C. for optional future immunohistochemical analysis. Left hemisphere was dissected to ventral and dorsal cortex, hippocampus and remaining brain fraction and fresh frozen on dry ice.
Plasma samples were processed using acetonitrile precipitation and then analyzed for VX745 drug concentration by LC-MS/MS

[3] = system: cytokine (IL-1β or TNFα) production in whole blood; conditions: inhibition of cytokine production (anti-inflammatory activity); cited from earlier work
knee degeneration = conditions: rats, 50 mg/kg, compared to control animals; cited from earlier work
hyperalgesic response = conditions: cited from earlier work
[4] = system: rheumatoid arthritis (RA); conditions: cited from earlier work
[5] = cited from earlier work
[6] = animals; cited from earlier work
[7] = 250 mg b.i.d, phase 2 clinical, RA patients

## VX-745
Amyloid plaque load
  amyloid plaque load: lower amyloid plaque load than control animals
[1]; 1.5 mg/kg p.o. BID versus vehicle-treated aged rats, p=0.0.019
  MWM distance at day 17: statistically significant better performance
[1]; 1.5 mg/kg p.o. BID versus vehicle-treated aged rats, p=0.007
  MWM change in latency from first test day to last test day: performed significantly better
[1]; 1.5 mg/kg p.o. BID versus vehicle-treated aged rats, p=0.012
  MWM change in distance from first test day to last test day: performed significantly better
[1]; 1.5 mg/kg p.o. BID versus vehicle-treated aged rats, p=0.013
  MWM latency at day 17: statistically significant better performance
[1]; 1.5 mg/kg p.o. BID, about equal to young vehicle-treated rats on Day 17
  MWM latency and distance, comparison of dose groups: greatest effect
[1]; VX-745-treated aged rats, p.o. BID
  MWM swim time and distance over sequential testing: greater progressive shortening of swim time and distance
[1]; time in target quadrant and annulus, platform crosses
  MWM probe trial parameters (day 19): no positive or negative effects
[2]; 1.5 mg/kg
  plasma drug concentration relative to concentrations needed for IL-1β inhibition: reached drug concentrations required for blocking IL-1β signaling
[2]; 4.5 mg/kg
  plasma drug concentration relative to concentrations needed for IL-1β inhibition: reached concentrations exceeding whole blood IC50 for IL-1β production
[2]; 0.5, 1.5 and 4.5 mg/kg p.o. BID, aged rats
  plasma drug levels one hour after last dose: increased in a dose proportional manner
[3]
  whole blood IC50: 0.065 to 0.08 µg/mL
Knee degeneration
  inhibition of knee degeneration: statistically significant inhibition of knee degeneration
Hyperalgesic response; 3 mg/kg
  effect on hyperalgesia at the 3 mg/kg dose: minimal effect
Hyperalgesic response; rats, 30 mg/kg, 10 mg/kg and 3 mg/kg
  inhibition of hyperalgesic response: significant inhibition of hyperalgesic response
[4]; [7]
  adverse events in patients: adverse events, including gastrointestinal effects such as diarrhea and abdominal pain, and elevations in liver transaminases
  inflammatory markers and clinical improvement: significant reduction in inflammatory markers and clinical improvement
[4]; 250 mg b.i.d, phase 2 clinical
  mean plasma drug concentrations: approximately 75 ng/m
[4]; humans
  adverse neurological effects in humans: not observed
[4]; treatment of rheumatoid arthritis
  mean blood concentration in the treatment of rheumatoid arthritis: approximately 75 ng/mL
[5]; animals
  blood brain barrier penetration: known to penetrate the blood brain barrier (BBB)
[5]; brain versus plasma
  brain concentrations relative to plasma: 1.7 times
[6]
  neurological effects at very high doses: adverse neurological effects
